Key:
[1] = Oral bioavailability in rat; type: ADME, organism-based; conditions: in vivo
in vivo [2] = conditions: rat, iv
in vivo [3] = conditions: rat, iv; remark: listed apart in the source
in vitro [4] = conditions: human
in vitro [5] = conditions: rat, hepatocytes
[6] = Oral bioavailability in dog; type: ADME, organism-based, Canis lupus familiaris; conditions: in vivo
in vivo [7] = conditions: dog
in vivo [8] = conditions: dog; remark: listed apart in the source
physchem = conditions: octanol/water
in vivo [9] = conditions: rat, iv; remark: listed apart in the source
Rattus norvegicus = organism: Rattus norvegicus; conditions: in vivo, iv

Q: Which results are given for `O=C(NC[C@@H](O)CN1CCC(Oc2ccc(Cl)c(Cl)c2)CC1)c1c[nH]nc1C(F)(F)F`?
A: bioavailability [1]: 36%; clearance (in vivo [2]): 22 mL/min/kg; half-life (in vivo [3]): 6 h; microsomal CLint (in vitro [4]; liver microsomes): < 3 µL/min/mg; hepatocyte CLint (in vitro [5]): 3 µL/min/1e6 cells

Q: For `CS(=O)(=O)c1ccc2c(C(=O)NC[C@@H](O)CN3CCC(Oc4ccc(Cl)c(Cl)c4)CC3)c[nH]c(=O)c2c1`, which hepatocyte CLint (in vitro [5]) is on record?
A: 3 µL/min/1e6 cells

Q: Which microsomal CLint (in vitro [4]; liver microsomes) does the source give for `N#Cc1ccc(OC2CCN(C[C@H](O)CNC(=O)c3c[nH]c(=O)c4ccccc34)CC2)cc1` here?
A: 18 µL/min/mg

Q: And the hepatocyte CLint (in vitro [5])?
A: 6 µL/min/1e6 cells

Q: Which microsomal CLint (in vitro [4]; liver microsomes) does the source give for `Cc1cc(Cl)ccc1OC1CCN(C[C@H](O)CNC(=O)c2c[nH]c(=O)c3cc(F)ccc23)CC1` here?
A: 9 µL/min/mg

Q: And the hepatocyte CLint (in vitro [5])?
A: < 3 µL/min/1e6 cells

Q: For `Cn1cc(C(=O)NC[C@@H](O)CN2CCC(Oc3ccc(Cl)c(Cl)c3)CC2)c(C(F)(F)F)cc1=O`, which bioavailability [1] is on record?
A: 53%

Q: And the clearance (in vivo [2])?
A: 9 mL/min/kg

Q: What about the half-life (in vivo [3]) of the same molecule?
A: 9.7 h

Q: And the microsomal CLint (in vitro [4]; microsomes)?
A: 5 µL/min/mg

Q: And the bioavailability [6]?
A: 81%

Q: And the hepatocyte CLint (in vitro [5])?
A: < 3 µL/min/1e6 cells

Q: And the clearance (in vivo [7])?
A: 8 mL/min/kg

Q: And the half-life (in vivo [8])?
A: 10.8 h

Q: With `O=C(NC[C@@H](O)CN1CCC(Oc2ccc(Cl)c(Cl)c2)CC1)c1c[nH]c(=O)cc1C(F)(F)F` as the molecule, how does the bioavailability [1] read?
A: < 10%

Q: And the microsomal CLint (in vitro [4]; liver microsomes)?
A: < 3 µL/min/mg

Q: What about the bioavailability [6] of the same molecule?
A: 63%

Q: What about the hepatocyte CLint (in vitro [5]) of the same molecule?
A: 4 µL/min/1e6 cells

Q: For `N#Cc1ccc(OC2CCN(C[C@H](O)CNC(=O)c3c[nH]c(=O)c4ccccc34)CC2)cc1Cl`, which microsomal CLint (in vitro [4]; liver microsomes) is on record?
A: 22 µL/min/mg

Q: What about the logD (physchem) of the same molecule?
A: 2.6

Q: What about the hepatocyte CLint (in vitro [5]) of the same molecule?
A: 10 µL/min/1e6 cells

Q: For `Cc1c(Cl)ccc(OC2CCN(C[C@H](O)CNC(=O)c3c[nH]c(=O)cc3C(F)(F)F)CC2)c1Cl`, which microsomal CLint (in vitro [4]; liver microsomes) is on record?
A: 6 µL/min/mg

Q: What about the hepatocyte CLint (in vitro [5]) of the same molecule?
A: 3 µL/min/1e6 cells

Q: For `Cc1cc(Cl)ccc1OC1CCN(C[C@H](O)CNC(=O)c2c[nH]c(=O)c3ccc(S(C)(=O)=O)cc23)CC1`, which microsomal CLint (in vitro [4]; liver microsomes) is on record?
A: 7 µL/min/mg

Q: And the hepatocyte CLint (in vitro [5])?
A: 8 µL/min/1e6 cells

Q: For `Cc1cc(Cl)ccc1OC1CCN(C[C@H](O)CNC(=O)c2c[nH]c(=O)cc2C(F)(F)F)CC1`, which microsomal CLint (in vitro [4]; liver microsomes) is on record?
A: 3 µL/min/mg

Q: And the hepatocyte CLint (in vitro [5])?
A: < 3 µL/min/1e6 cells

Q: With `O=C(NC[C@@H](O)CN1CCC(Oc2ccc(Cl)c(Cl)c2)CC1)c1c[nH]c(=O)c2ccccc12` as the molecule, how does the bioavailability [1] read?
A: 11%

Q: What about the bioavailability [6] of the same molecule?
A: 40%

Q: Which microsomal CLint (in vitro [4]; microsomes) does the source give for `Cc1cc(Cl)ccc1OC1CCN(C[C@H](O)CNC(=O)c2c[nH]nc2C(F)(F)F)CC1` here?
A: < 3 µL/min/mg

Q: What about the hepatocyte CLint (in vitro [5]) of the same molecule?
A: 5 µL/min/1e6 cells

Q: With `CC1(O)CN(S(=O)(=O)c2ccc3c(C(=O)NC[C@@H](O)CN4CCC(Oc5ccc(Cl)c(Cl)c5)CC4)c[nH]c(=O)c3c2)C1` as the molecule, how does the microsomal CLint (in vitro [4]; liver microsomes) read?
A: 18 µL/min/mg

Q: What about the logD (physchem) of the same molecule?
A: 2.5

Q: What about the hepatocyte CLint (in vitro [5]) of the same molecule?
A: 3 µL/min/1e6 cells

Q: With `O=C(NC[C@@H](O)CN1CCC(Oc2ccc(Cl)c(Cl)c2)CC1)c1c[nH]c(=O)c2cc(F)ccc12` as the molecule, how does the logD (physchem) read?
A: 3.2

Q: And the Vd (in vivo [9])?
A: 6.4 L/kg

Q: Which results are given for `NC(=O)c1c(OC2CCN(C[C@H](O)CNC(=O)c3c[nH]c(=O)c4ccccc34)CC2)ccc(Cl)c1Cl`?
A: bioavailability [1]: < 5%; microsomal CLint (in vitro [4]; liver microsomes): 18 µL/min/mg; logD (physchem): 1.5; CL (Rattus norvegicus): 0.0086 mL/min/kg; hepatocyte CLint (in vitro [5]): 2 µL/min/1e6 cells

Q: For `O=C(NC[C@@H](O)CN1CCC(Oc2ccc(Cl)c(Cl)c2)CC1)c1c[nH]c(=O)c2c(F)cccc12`, which microsomal CLint (in vitro [4]; liver microsomes) is on record?
A: 6 µL/min/mg

Q: And the logD (physchem)?
A: 3.2

Q: What about the hepatocyte CLint (in vitro [5]) of the same molecule?
A: < 3 µL/min/1e6 cells

Q: With `Cc1cc(Cl)ccc1OC1CCN(C[C@H](O)CNC(=O)c2c[nH]c(=O)c3cc(S(C)(=O)=O)ccc23)CC1` as the molecule, how does the microsomal CLint (in vitro [4]; liver microsomes) read?
A: 14 µL/min/mg

Q: And the logD (physchem)?
A: 2.4

Q: And the hepatocyte CLint (in vitro [5])?
A: 7 µL/min/1e6 cells

Q: For `O=C(NC[C@@H](O)CN1CCC(Oc2ccc(Cl)c(Cl)c2)CC1)c1c[nH]c(=O)c2ccc(F)cc12`, which microsomal CLint (in vitro [4]; liver microsomes) is on record?
A: 8 µL/min/mg

Q: What about the logD (physchem) of the same molecule?
A: 3.9

Q: What about the hepatocyte CLint (in vitro [5]) of the same molecule?
A: 5 µL/min/1e6 cells

Q: For `CS(=O)(=O)c1ccc2c(C(=O)NC[C@@H](O)CN3CCC(Oc4ccc(C#N)c(Cl)c4)CC3)c[nH]c(=O)c2c1`, which logD (physchem) is on record?
A: 1.4

Q: What does the source list for `NS(=O)(=O)c1ccc2c(C(=O)NC[C@@H](O)CN3CCC(Oc4ccc(Cl)c(Cl)c4)CC3)c[nH]c(=O)c2c1`?
A: microsomal CLint (in vitro [4]; liver microsomes): < 3 µL/min/mg; hepatocyte CLint (in vitro [5]): < 3 µL/min/1e6 cells

Q: Which microsomal CLint (in vitro [4]; liver microsomes) does the source give for `CN(C)S(=O)(=O)c1ccc2c(C(=O)NC[C@@H](O)CN3CCC(Oc4ccc(Cl)c(Cl)c4)CC3)c[nH]c(=O)c2c1` here?
A: 86 µL/min/mg

Q: What about the logD (physchem) of the same molecule?
A: 3.1

Q: And the hepatocyte CLint (in vitro [5])?
A: 10 µL/min/1e6 cells

Q: Which microsomal CLint (in vitro [4]; liver microsomes) does the source give for `CNS(=O)(=O)c1ccc2c(C(=O)NC[C@@H](O)CN3CCC(Oc4ccc(Cl)c(Cl)c4)CC3)c[nH]c(=O)c2c1` here?
A: 14 µL/min/mg

Q: And the logD (physchem)?
A: 2.8

Q: And the hepatocyte CLint (in vitro [5])?
A: < 3 µL/min/1e6 cells

Q: Which microsomal CLint (in vitro [4]; liver microsomes) does the source give for `Cc1c(Cl)ccc(OC2CCN(C[C@H](O)CNC(=O)c3c[nH]c(=O)c4ccc(S(C)(=O)=O)cc34)CC2)c1Cl` here?
A: < 3 µL/min/mg

Q: And the logD (physchem)?
A: 2.8

Q: What about the hepatocyte CLint (in vitro [5]) of the same molecule?
A: < 3 µL/min/1e6 cells

Q: For `O=C(NC[C@@H](O)CN1CCC(Oc2ccc(Cl)c(Cl)c2)CC1)c1c[nH]c(=O)c2cc(S(=O)(=O)NCCO)ccc12`, which hepatocyte CLint (in vitro [5]) is on record?
A: 5 µL/min/1e6 cells

Q: Which microsomal CLint (in vitro [4]; liver microsomes) does the source give for `Cc1c(Cl)ccc(OC2CCN(C[C@H](O)CNC(=O)c3c[nH]nc3C(F)(F)F)CC2)c1Cl` here?
A: < 3 µL/min/mg

Q: And the hepatocyte CLint (in vitro [5])?
A: 6 µL/min/1e6 cells

Q: For `O=C(NC[C@@H](O)CN1CCC(Oc2ccc(Cl)c(Cl)c2)CC1)c1c[nH]c(=O)c2cc(S(=O)(=O)NC3CC3)ccc12`, which microsomal CLint (in vitro [4]; liver microsomes) is on record?
A: 21 µL/min/mg

Q: What about the hepatocyte CLint (in vitro [5]) of the same molecule?
A: 6 µL/min/1e6 cells

Q: Which microsomal CLint (in vitro [4]; liver microsomes) does the source give for `O=C(NC[C@@H](O)CN1CCC(Oc2ccc(Cl)c(Cl)c2)CC1)c1c[nH]nc1C1CC1` here?
A: 9 µL/min/mg

Q: And the hepatocyte CLint (in vitro [5])?
A: < 3 µL/min/1e6 cells

Q: With `Cc1cc(Cl)ccc1OC1CCN(C[C@H](O)CNC(=O)c2c[nH]c(=O)c3c(F)cccc23)CC1` as the molecule, how does the microsomal CLint (in vitro [4]; liver microsomes) read?
A: 9 µL/min/mg

Q: And the logD (physchem)?
A: 3

Q: And the hepatocyte CLint (in vitro [5])?
A: 7 µL/min/1e6 cells

Q: For `O=C(NC[C@@H](O)CN1CCC(Oc2ccc(Cl)c(Cl)c2)CC1)c1c[nH]c(=O)c2cc(S(=O)(=O)N3CCC3)ccc12`, which microsomal CLint (in vitro [4]; microsomes) is on record?
A: < 3 µL/min/mg

Q: What about the hepatocyte CLint (in vitro [5]) of the same molecule?
A: 7 µL/min/1e6 cells

Q: With `Cc1c(Cl)ccc(OC2CCN(C[C@H](O)CNC(=O)c3c[nH]c(=O)c4cc(S(C)(=O)=O)ccc34)CC2)c1Cl` as the molecule, how does the microsomal CLint (in vitro [4]; liver microsomes) read?
A: 13 µL/min/mg

Q: What about the logD (physchem) of the same molecule?
A: 2.8

Q: What about the hepatocyte CLint (in vitro [5]) of the same molecule?
A: 12 µL/min/1e6 cells

Reference: ChEMBL document CHEMBL2203219, “Discovery and evolution of phenoxypiperidine hydroxyamide dual CCR3/H₁ antagonists. Part II: optimising in vivo clearance” (Bioorg Med Chem Lett, 2012)
